Measurements published in US11130741B2 (Bioimics AB, priority 2016, dated 2021).
Values after ≈ are worked out from the molar mass of the structure shown. Like-named read-outs stand apart in the source and are kept apart here.

Tests used:
[1] = system: E. coli RNase P RNA, M1 RNA; experiment: Inhibition of bacterial RNase P activity, IC50 determination (cleavage of pATSerUG by M1 RNA); assay type: biochemical; conditions: NI = No inhibition
[2] = system: Escherichia coli (ATCC25922); experiment: MIC, broth microdilution (CLSI), Escherichia coli ATCC25922
[3] = system: Staphylococcus aureus (ATCC25923); experiment: MIC, broth microdilution (CLSI), Staphylococcus aureus ATCC25923
[4] = ATCC25922, read-out: E. coli MIC, Table 15, NI = No inhibition
[5] = ATCC25923, read-out: S. aureus ("Clinical") MIC

IC50 [1]	MIC [2, 4]	MIC [3, 5]	Compound	MIC ([2]; ATCC25922, read-out: E. coli MIC)	MIC ([3]; ATCC25923, read-out: S. aureus ("Clinical") MIC, Table 15)
> 100 µM	> 100 µg/mL	32 µg/mL (≈ 78.3 µM)	Nc1cc(C(F)(F)F)cc2c1N(CCCN1CCNCC1)c1ccccc1S2 [compound 83, 10-(3-(piperazin-1-yl)propyl)-3-(trifluoromethyl)-10H-phenothiazin-1-amine]	–	–
> 100 µM	> 100 µg/mL	55 µg/mL (≈ 129 µM)	CN(C)CCCN1c2ccccc2Sc2cc(C(F)(F)F)cc(NC(N)=S)c21 [compound 87, 1-(10-(3-(Dimethylamino)propyl)-3-(trifluoromethyl)-10H-phenothiazin-1-yl)thiourea]	–	–
> 100 µM	> 100 µg/mL	27 µg/mL (≈ 63.9 µM)	CN1CCN(CCCN2c3ccccc3Sc3cc(C(F)(F)F)cc(N)c32)CC1 [compound 88, 10-(3-(4-methylpiperazin-1-yl)propyl)-3-(trifluoromethyl)-10H-phenothiazin-1-amine]	–	–
> 100 µM	> 100 µg/mL	85 µg/mL (≈ 255 µM)	CN(C)CCCN1c2ccccc2Sc2cc(Cl)cc(N)c21 [compound 89, 3-chloro-10-(3-(dimethylamino)propyl)-10H-phenothiazin-1-amine]	–	–
> 100 µM	> 100 µg/mL	64 µg/mL (≈ 141 µM)	CC(N)CC(=O)Nc1cc(C(F)(F)F)cc2c1N(CCCN(C)C)c1ccccc1S2 (centres unmarked) [compound 90, 3-amino-N-(10-(3-(dimethylamino)propyl)-3-(trifluoromethyl)-10H-phenothiazin-1-yl)butanamide]	–	–
> 100 µM	32 µg/mL (≈ 81.3 µM)	8 µg/mL (≈ 20.3 µM)	O=C(Nc1cc(C(F)(F)F)cc2c1Nc1ccccc1S2)C1CCCNC1 (centres unmarked) [compound 91, N-(3-(trifluoromethyl)-10H-phenothiazin-1-yl)piperidine-3-carboxamide]	–	–
94 µM	64 µg/mL (≈ 157 µM)	32 µg/mL (≈ 78.5 µM)	NC1CCC(C(=O)Nc2cc(C(F)(F)F)cc3c2Nc2ccccc2S3)CC1 (centres unmarked) [compound 95, 4-amino-N-(3-(trifluoromethyl)-10H-phenothiazin-1-yl)cyclohexane-carboxamide]	–	–
> 100 µM	8 µg/mL (≈ 23.6 µM)	4 µg/mL (≈ 11.8 µM)	NCCCNc1cc(C(F)(F)F)cc2c1Nc1ccccc1S2 [compound 97, N1-(3-(trifluoromethyl)-10H-phenothiazin-1-yl)propane-1,3-diamine]	–	–
> 100 µM	16 µg/mL (≈ 41.6 µM)	8 µg/mL (≈ 20.8 µM)	NCCNC(=S)Nc1cc(C(F)(F)F)cc2c1Nc1ccccc1S2 [compound 98, 1-(2-aminoethyl)-3-(3-(trifluoro-methyl)-10H-phenothiazin-1-yl)thiourea]	–	–
> 100 µM	32 µg/mL (≈ 81.3 µM)	16 µg/mL (≈ 40.7 µM)	O=C(Nc1cc(C(F)(F)F)cc2c1Nc1ccccc1S2)[C@@H]1CCCNC1 [compound 100, (R)-N-(3-(trifluoromethyl)-10H-phenothiazin-1-yl)piperidine-3-carboxamide]	–	–
> 100 µM	64 µg/mL (≈ 151 µM)	32 µg/mL (≈ 75.7 µM)	O=C(CCN1CCNCC1)Nc1cc(C(F)(F)F)cc2c1Nc1ccccc1S2 [compound 101, 3-(piperazin-1-yl)-N-(3-(trifluoromethyl)-10H-phenothiazin-1-yl)propanamide]	–	–
> 100 µM	64 µg/mL (≈ 163 µM)	32 µg/mL (≈ 81.3 µM)	O=C(Nc1cc(C(F)(F)F)cc2c1Nc1ccccc1S2)[C@H]1CCCNC1 [compound 106, N-(3-(trifluoromethyl)-10H-phenothiazin-1-yl)piperidine-3-carboxamide]	–	–
> 100 µM	32 µg/mL (≈ 81.3 µM)	8 µg/mL (≈ 20.3 µM)	NC1CCC(CNc2cc(C(F)(F)F)cc3c2Nc2ccccc2S3)CC1 (centres unmarked) [compound 108, N-((4-aminocyclohexyl)methyl)-3-(trifluoromethyl)-10H-phenothiazin-1-amine]	–	–
> 100 µM	> 100 µg/mL	6 µg/mL (≈ 16.6 µM)	CN(C)CCCN1c2ccccc2Sc2cc(-c3ccccc3)ccc21 [compound 110, N,N-dimethyl-3-(3-phenyl-10H-phenothiazin-10-yl)propan-1-amine]	–	–
> 100 µM	> 100 µg/mL	7 µg/mL (≈ 15.3 µM)	O=C(CC1(O)CCC(F)(F)CC1)Nc1cc(C(F)(F)F)cc2c1Nc1ccccc1S2 [compound 115, 2-(4,4-difluoro-1-hydroxycyclo-hexyl)-N-(3-(trifluoromethyl)-10H-phenothiazin-1-yl)acetamide]	–	–
> 100 µM	> 100 µg/mL	42 µg/mL (≈ 129 µM)	CN(C)CCCN1c2ccccc2Sc2cc(C3CC3)ccc21 [compound 116, 3-(3-cyclopropyl-10H-phenothiazin-10-yl)-N,N-dimethylpropan-1-amine]	–	–
> 100 µM	> 100 µg/mL	26 µg/mL (≈ 64.9 µM)	CN(C)CCCN1c2ccccc2Sc2cc(-c3ccc4[nH]cnc4c3)ccc21 [compound 117, 3-(3-(1H-benzo[d]imidazol-5-yl)-10H-phenothiazin-10-yl)-N,N-dimethylpropan-1-amine]	–	–
–	97 µg/mL (≈ 257 µM)	24 µg/mL (≈ 63.6 µM)	NC1CCCC(CNc2cc(C(F)(F)F)cc3c2Nc2ccccc2O3)C1 (centres unmarked) [compound 164, N-((3-aminocyclohexyl)methyl)-3-(trifluoromethyl)-10H-phenoxazin-1-amine]	–	–
–	–	–	NCC(CCl)Nc1cc(C(F)(F)F)cc2c1Nc1ccccc1S2 (centres unmarked) [compound 178, 3-chloro-N2-(3-(trifluoromethyl)-10H-phenothiazin-1-yl)propane-1,2-diamine]	48 µg/mL (≈ 128 µM)	6 µg/mL (≈ 16.1 µM)
–	12 µg/mL (≈ 28.5 µM)	3 µg/mL (≈ 7.12 µM)	NCCC1CCC(CNc2cc(C(F)(F)F)cc3c2Nc2ccccc2S3)CC1 (centres unmarked) [compound 179, N-((4-(2-aminoethyl)cyclohexyl)methyl)-3-(trifluoromethyl)-10H-phenothiazin-1-amine]	–	–
364 µM	–	25 µg/mL (≈ 62.9 µM)	Nc1cc(C(F)(F)F)cc2c1Nc1ccc(-c3cc4ccccc4[nH]3)cc1S2 [compound 205, 7-(1H-indol-2-yl)-3-(trifluoromethyl)-10H-phenothiazin-1-amine]	–	–
–	23 µg/mL (≈ 64.3 µM)	3 µg/mL (≈ 8.39 µM)	NCCN1c2ccccc2Sc2cc(-c3cc4ccccc4[nH]3)ccc21 [compound 213, 2-(3-(1H-indol-2-yl)-10H-phenothiazin-10-yl)ethanamine]	–	–
–	14 µg/mL (≈ 31 µM)	7 µg/mL (≈ 15.5 µM)	NCCNCCN1CCC(Nc2cc(C(F)(F)F)cc3c2Nc2ccccc2S3)CC1 [compound 219, N1-(2-(4-((3-(trifluoromethyl)-10H-phenothiazin-1-yl)amino)piperidin-1-yl)ethyl)ethane-1,2-diamine]	–	–
–	13 µg/mL (≈ 33 µM)	6 µg/mL (≈ 15.2 µM)	NCCN1CCC(Nc2cc(C(F)(F)F)cc3c2Nc2ccccc2S3)C1 (centres unmarked) [compound 228, N-(1-(2-aminoethyl)pyrrolidin-3-yl)-3-(trifluoromethyl)-10H-phenothiazin-1-amine]	–	–
39 µM	–	15 µg/mL (≈ 31.2 µM)	FC(F)(F)c1cc(NC2CCNCC2)c2c(c1)Sc1cc(-c3cc4ccccc4[nH]3)ccc1N2 [compound 243, 7-(1H-indol-2-yl)-N-(piperidin-4-yl)-3-(trifluoromethyl)-10H-phenothiazin-1-amine]	–	–

Compound	IC50 [1]	MIC [2, 4]	MIC [3, 5]	MIC ([2]; ATCC25922, read-out: E. coli MIC)	MIC ([3]; ATCC25923, read-out: S. aureus ("Clinical") MIC, Table 15)
NCCN1CCOC[C@H]1C(=O)Nc1cc(C(F)(F)F)cc2c1Nc1ccccc1S2.O=C(O)C(F)(F)F [compound 157, (S)-4-(2-aminoethyl)-N-(3-(trifluoro-methyl)-10H-phenothiazin-1-yl)morpholine-3-carboxamide 2,2,2-trifluoroacetate]	–	> 100 µg/mL	71 µg/mL	–	–
NC1CCCC(CC(=O)Nc2cc(C(F)(F)F)cc3c2Nc2ccccc2S3)C1.O=C(O)C(F)(F)F (centres unmarked) [compound 165, 2-(3-aminocyclohexyl)-N-(3-(trifluoromethyl)-10H-phenothiazin-1-yl)acetamide 2,2,2-trifluoroacetate]	–	34 µg/mL	17 µg/mL	–	–
